The values below come from ChEMBL document CHEMBL5233279, “d-Mannose binding, aggregation property, and antifungal activity of amide derivatives of pradimicin A” (Bioorg Med Chem, 2021).

pKd: −log10 of the molar value. ≈ marks a conversion by molar mass, not a printed value.

Series [1] can be described thus: Binding affinity to methyl alpha-D-mannopyranoside (unknown origin) in MPOS buffer at pH 7.0 assessed as secondary dissociation constant (Kd2) by ITC experiment.
Series [2] is described as follows: Binding affinity to methyl alpha-D-mannopyranoside (unknown origin) in MPOS buffer at pH 7.0 assessed as primary dissociation constant (Kd1) by ITC experiment.
A short description of series [3]: Aggregation property of the compound in MPOS buffer at pH 7.0 assessed as compound remaining in supernatant incubated for 15 mins at 37 degreeC followed by 30 mins incubation at room temperature by HPLC based sedimentation assay relative to control. The format is physicochemical. More on the design: concentration or dose not given beside the values. The settings on record: pH 7, 0.75 h, time 45 min.

The next series concerns Diutina rugosa. In words: Antifungal activity against Candida rugosa AJ14513 assessed as inhibition of fungal growth incubated for 48 hrs. It counts as functional.
Series [4] is described as follows: Aggregation property of the compound in MPOS buffer at pH 7.0 assessed as compound remaining in supernatant at 1 mM incubated for 15 mins at 37 degreeC followed by 30 mins incubation at room temperature by HPLC based sedimentation assay relative to control. The format is physicochemical. As to conditions: pH 7, 0.75 h, 1000 µM, time 45 min; call rule not given here.
The nature of series [5]: Binding affinity to D-mannose (unknown origin) in MPOS buffer at pH 7.0 assessed as primary dissociation constant (Kd1) by ITC experiment.
The nature of series [6]: Binding affinity to D-mannose (unknown origin) in MPOS buffer at pH 7.0 assessed as secondary dissociation constant (Kd2) by ITC experiment.
The nature of series [7]: Aggregation property of the compound in MPOS buffer at pH 7.0 incubated for 15 mins at 37 degreeC followed by 30 mins incubation at room temperature by HPLC based sedimentation assay. The format is physicochemical. The settings on record: pH 7, 0.75 h, time 45 min.

In the case of `CN[C@@H]1[C@H](O[C@@H]2OC[C@@H](O)[C@H](O)[C@H]2O)[C@@H](O)[C@H](O[C@H]2c3cc(C)c(C(=O)N[C@H](C)C(=O)NOC)c(O)c3-c3c(cc4c(c3O)C(=O)c3cc(OC)cc(O)c3C4=O)[C@@H]2O)O[C@@H]1C`, the figures for the pKd in series [1] and in series [2] were 2.28 and 3.44, respectively. For the same compound, the Activity in series [3] was 65%. Also, in the series on Diutina rugosa, the MIC is 16 µg/mL (≈ 18.4 µM).
With `CNC(=O)[C@@H](C)NC(=O)c1c(C)cc2c(c1O)-c1c(cc3c(c1O)C(=O)c1cc(OC)cc(O)c1C3=O)[C@H](O)[C@H]2O[C@@H]1O[C@H](C)[C@H](NC)[C@H](O[C@@H]2OC[C@@H](O)[C@H](O)[C@H]2O)[C@H]1O`, the pKd is 2.19 in series [1] and 3.07 in series [2]. Also, the Activity in series [4] was over 60%. For the same compound, the MIC with Diutina rugosa came out at 16 µg/mL (≈ 18.7 µM).
Consider `CN[C@@H]1[C@H](O[C@@H]2OC[C@@H](O)[C@H](O)[C@H]2O)[C@@H](O)[C@H](O[C@H]2c3cc(C)c(C(=O)N[C@H](C)C(=O)N(C)OC)c(O)c3-c3c(cc4c(c3O)C(=O)c3cc(OC)cc(O)c3C4=O)[C@@H]2O)O[C@@H]1C`, for which the pKd in series [1] is 2.28; in series [2] it was 3.47. Further, the Activity in series [3] is 65%. In addition, in the series with Diutina rugosa, the MIC amounted to 16 µg/mL (≈ 18.1 µM).
Regarding `CN[C@@H]1[C@H](O[C@@H]2OC[C@@H](O)[C@H](O)[C@H]2O)[C@@H](O)[C@H](O[C@H]2c3cc(C)c(C(=O)N[C@H](C)C(N)=O)c(O)c3-c3c(cc4c(c3O)C(=O)c3cc(OC)cc(O)c3C4=O)[C@@H]2O)O[C@@H]1C`, the results for the pKd in series [1] and in series [2] were 2.26 and 3.66, respectively. Moreover, in series [4], the Activity was over 60%. Moreover, in the series on Diutina rugosa, the MIC is 16 µg/mL (≈ 19.1 µM).
With `CN[C@@H]1[C@H](O[C@@H]2OC[C@@H](O)[C@H](O)[C@H]2O)[C@@H](O)[C@H](O[C@H]2c3cc(C)c(C(=O)N[C@H](C)C(=O)NO)c(O)c3-c3c(cc4c(c3O)C(=O)c3cc(OC)cc(O)c3C4=O)[C@@H]2O)O[C@@H]1C`, the pKd in series [1] is 2.37; in series [2] it was 4.12; in series [5], 4.00; in series [6] it was 2.26. Moreover, the Activity in series [3] is on record as 65%. Also, the MIC in the series on Diutina rugosa is 8 µg/mL (≈ 9.35 µM).
Take `CN[C@@H]1[C@H](O[C@@H]2OC[C@@H](O)[C@H](O)[C@H]2O)[C@@H](O)[C@H](O[C@H]2c3cc(C)c(C(=O)N[C@H](C)C(=O)NN)c(O)c3-c3c(cc4c(c3O)C(=O)c3cc(OC)cc(O)c3C4=O)[C@@H]2O)O[C@@H]1C`: the pKd in series [1] is 2.01; in series [2], 3.52. In addition, in series [3], the Activity is given as 65%. Besides, the MIC in the series on Diutina rugosa was found to be 16 µg/mL (≈ 18.7 µM).
For `CN[C@@H]1[C@H](O[C@@H]2OC[C@@H](O)[C@H](O)[C@H]2O)[C@@H](O)[C@H](O[C@H]2c3cc(C)c(C(=O)N[C@H](C)C(=O)N(C)O)c(O)c3-c3c(cc4c(c3O)C(=O)c3cc(OC)cc(O)c3C4=O)[C@@H]2O)O[C@@H]1C`, the results for the pKd in series [1] and in series [2] were 2.46 and 3.74, respectively. In series [3], the Activity was found to be 65%. In addition, the minimal inhibitory concentration (MIC) with Diutina rugosa was determined as 16 µg/mL (≈ 18.4 µM).
For the compound `CN[C@@H]1[C@H](O[C@@H]2OC[C@@H](O)[C@H](O)[C@H]2O)[C@@H](O)[C@H](O[C@H]2c3cc(C)c(C(=O)N[C@H](C)C(=O)NCCO)c(O)c3-c3c(cc4c(c3O)C(=O)c3cc(OC)cc(O)c3C4=O)[C@@H]2O)O[C@@H]1C`, in the series with Diutina rugosa, the MIC is 16 µg/mL (≈ 18.1 µM).
Consider `CN[C@@H]1[C@H](O[C@@H]2OC[C@@H](O)[C@H](O)[C@H]2O)[C@@H](O)[C@H](O[C@H]2c3cc(C)c(C(=O)N[C@H](C)C(=O)O)c(O)c3-c3c(cc4c(c3O)C(=O)c3cc(OC)cc(O)c3C4=O)[C@@H]2O)O[C@@H]1C` [PRADIMICIN A], for which the figures for the pKd in series [1] and in series [2] were 2.42 and 4.02, respectively. Further, the MIC in the series on Diutina rugosa amounted to 4 µg/mL (≈ 4.76 µM). Moreover, the outcome in series [7] was Active.
